Counter-ions that a name gives are not always drawn. Starred links: 1 amine or outer side, 2 acyl side, 3 side chain; linkers in the order of their positions; H or OH if unused. Non-standard residues stand in square brackets, D forms with d. Residues, ends and D or L forms follow the SMILES beside them. Groups on a side chain read outwards from the residue. *: point of attachment. F4(amMeBAlaDOTALu) = lutetium complex of (S)-2,2',2''-(10-(2-((3-((4-(2-amino-2-carboxyethyl)benzyl)amino)-3-oxopropyl)(methyl)amino)-2-oxoethyl)-1,4,7,10-tetraazacyclododecane-1,4,7-triyl)triacetic acid (Phe with 4-aminomethyl-N-methyl-βAla, CN(CCC(=O)NCc1ccc(C[C@H](N[*:1])C(=O)[*:2])cc1)C(=O)CN1CCN(CC(=O)[O-])CCN(CC(=O)[O-])CCN(CC(=O)[O-])CC1.[Lu+3]; X8 = O=C(O)CN1CCN(CC(=O)O)CCN(CC(=O)O)C(Cc2ccc(NC(=S)*)cc2)CN(CC(=O)O)CC1; DOTA = O=C(O)CN1CCN(CC(=O)O)CCN(CC(=O)*)CCN(CC(=O)O)CC1; NOTA = O=C(O)CN1CCN(CC(=O)O)CCN(CC(=O)*)CC1; Phe(4-CH2NH2) = NCc1ccc(C[C@H](N)C(=O)O)cc1; Piperazinyl(4-CH2COOH) = O=C(O)CN1CCN(*)CC1; AEF = NCCOc1ccc(C[C@H](N)C(=O)O)cc1; NMeF = CN[C@@H](Cc1ccccc1)C(=O)O; dHyp = O=C(O)[C@H]1C[C@H](O)CN1; Aoc(2) = CCCCCC[C@H](N)C(=O)O; Ahp(2) = CCCCC[C@H](N)C(=O)O; hSer = N[C@@H](CCO)C(=O)O; AEEA = NCCOCCOCC(=O)O; CO = O=C([*:1])[*:2]; X3 = FC1(F)CCN(*)C1; Sar = CNCC(=O)O; Propyl = CCC*
Key:
[1] = molecular target: T1, mouse FAP (Mus musculus, UniProt P97321); experiment: Enzymatic FAP competition assay (Z-Gly-Pro-AMC fluorescence), mouse FAP; format: biochemical; conditions: read-out: m. FAP, Enz., IC50
T1 construct: biotinylated His, Avi tag, mouse FAP (26-761, FAP-M82Q5); His; Avi tag (biotinylated); purchased AcroBiosystems FAP-M82Q5
T1 sequence (P97321 26-761): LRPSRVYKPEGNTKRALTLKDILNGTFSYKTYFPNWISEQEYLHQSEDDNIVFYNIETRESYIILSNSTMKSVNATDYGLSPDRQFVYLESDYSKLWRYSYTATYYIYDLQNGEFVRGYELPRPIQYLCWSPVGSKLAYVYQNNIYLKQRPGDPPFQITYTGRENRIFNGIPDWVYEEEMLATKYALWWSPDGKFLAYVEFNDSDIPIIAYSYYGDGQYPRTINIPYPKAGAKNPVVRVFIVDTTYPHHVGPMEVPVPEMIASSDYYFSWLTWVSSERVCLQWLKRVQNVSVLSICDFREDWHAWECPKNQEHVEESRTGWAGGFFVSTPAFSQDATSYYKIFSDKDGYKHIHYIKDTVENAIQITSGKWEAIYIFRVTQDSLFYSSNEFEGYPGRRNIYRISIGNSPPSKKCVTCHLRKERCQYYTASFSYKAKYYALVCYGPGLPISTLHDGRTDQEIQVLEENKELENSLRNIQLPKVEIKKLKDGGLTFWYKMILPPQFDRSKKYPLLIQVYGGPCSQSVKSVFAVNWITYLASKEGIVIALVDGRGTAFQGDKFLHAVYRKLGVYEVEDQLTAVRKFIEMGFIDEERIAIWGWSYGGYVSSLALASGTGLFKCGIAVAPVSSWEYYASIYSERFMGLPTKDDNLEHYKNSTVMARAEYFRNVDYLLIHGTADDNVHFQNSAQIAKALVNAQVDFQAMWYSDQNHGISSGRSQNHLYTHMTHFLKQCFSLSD
Summary of the method: (§1)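 Biotinylated His/Avi-tagged FAP ectodomain (human 26-760, mouse 26-761) at 0.01 nM, preincubated 24 h with peptides (14 concentrations, up to 1 μM) in pH 7.5 phosphate, 150 mM NaCl, 0.05% Tween20, 1% DMSO. Then 50 μM Z-Gly-Pro-AMC, 4 h at 22-24° C; AMC fluorescence (380/460 nm) gave IC50 from duplicate points.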

[2] = molecular target: T2, human FAP (Homo sapiens, UniProt Q12884); experiment: Enzymatic FAP competition assay (Z-Gly-Pro-AMC fluorescence), human FAP; format: biochemical; conditions: read-out: h. FAP, Enz., IC50
T2 construct: the biotinylated His, Avi tag, human FAP (26-760, FAP-H82Q6); His; Avi tag (biotinylated); purchased AcroBiosystems FAP-H82Q6
T2 sequence (Q12884 26-760): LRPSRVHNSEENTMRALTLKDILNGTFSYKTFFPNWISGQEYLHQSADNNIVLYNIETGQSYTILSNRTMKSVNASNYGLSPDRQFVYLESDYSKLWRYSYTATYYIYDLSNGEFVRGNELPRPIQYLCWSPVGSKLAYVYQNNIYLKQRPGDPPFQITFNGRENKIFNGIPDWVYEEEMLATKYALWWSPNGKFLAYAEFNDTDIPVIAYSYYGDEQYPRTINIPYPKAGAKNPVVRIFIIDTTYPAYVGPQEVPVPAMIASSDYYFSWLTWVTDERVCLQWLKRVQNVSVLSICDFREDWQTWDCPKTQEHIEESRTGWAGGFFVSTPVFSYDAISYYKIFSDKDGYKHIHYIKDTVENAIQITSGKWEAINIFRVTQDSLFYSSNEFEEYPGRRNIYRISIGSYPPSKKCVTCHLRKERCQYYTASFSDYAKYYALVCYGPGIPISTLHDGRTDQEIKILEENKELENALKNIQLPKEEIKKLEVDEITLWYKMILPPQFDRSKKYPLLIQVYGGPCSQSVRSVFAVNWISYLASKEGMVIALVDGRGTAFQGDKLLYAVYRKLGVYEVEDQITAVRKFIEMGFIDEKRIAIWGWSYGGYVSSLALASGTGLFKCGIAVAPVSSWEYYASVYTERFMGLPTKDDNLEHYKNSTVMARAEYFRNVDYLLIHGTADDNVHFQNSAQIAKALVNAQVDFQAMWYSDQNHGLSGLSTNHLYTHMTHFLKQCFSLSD
Summary of the method: as §1

[3] = molecular target: T1, mouse FAP; experiment: Surface plasmon resonance (SPR) for peptide affinity, mouse FAP; format: binding
Summary of the method: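 Biotinylated His/Avi-tagged FAP ectodomains (human 26-760, mouse 26-761) captured or immobilized on Biacore sensor chips; peptides run at 25 °C in HBS-EP+ pH 7.6 with 2% DMSO, single-cycle kinetics, 8 concentrations. KD from 1:1 binding-model fit of sensorgrams.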

| IC50 [1] [nM] | IC50 [2] [nM] | Kd [3] [nM] | Molecule |
| --- | --- | --- | --- |
| 0.049 | 0.024 | < 0.035 | hSer-Gly-NMe3PyA-F(4amPEG2NHDOTA-Lu)-hS(Pr)-W7N-Gly-K(COpipzaa)-Asp-D-Pro [Example C6] |
| 0.034 | 0.014 | < 0.068 | Glu-Gly-NMe3PyA-F(4amPEG2NHDOTA-Lu)-hS(Pr)-W7N-Gly-K(COpipzaa)-Asp-D-Pro [Example C7] |
| 0.055 | 0.021 | 0.059 | CCCOCC[C@@H]1NC(=O)[C@H](Cc2ccc(CNC(=O)COCCOCCNC(=S)Nc3ccc(CC4CN(CC(=O)O)CCN(CC(=O)O)CCN(CC(=O)O)CCN4CC(=O)O)cc3)cc2)NC(=O)[C@H](Cc2ccccc2)N(C)C(=O)CNC(=O)CNC(=O)[C@H]2CCCN2C(=O)[C@H](CC(=O)O)NC(=O)[C@H](CCCCNC(=O)N2CCN(CC(=O)O)CC2)NC(=O)CNC(=O)[C@H](Cc2c[nH]c3ccccc23)NC1=O (stereo partly drawn) [Example B35, Gly-Gly-NMePhe-F(4amPEG2NH-p-SCN-DOTA-hS(Pr)-Trp-Gly-K(COpipzaa)-Asp-D-Pro] (cyclo(D[dP]GG[NMeF][Phe(4-CH2NH2)]([AEEA-X8])[hSer](Propyl)WGK([CO-Piperazinyl(4-CH2COOH)]))) |
| 0.024 | 0.009 | 0.028 | Gly-Gly-NMePhe-F4(amMeBAlaDOTALu)-Ahp-Trp-Gly-Tyr-Asp-D-Pro (cyclo(GG[NMeF][F4(amMeBAlaDOTALu)][Ahp(2)]WGYD[dP]); also: Lu complex) [Example C11] |
| 0.012 | 0.006 | < 0.024 | CCCCCC[C@@H]1NC(=O)[C@H](Cc2ccc(CNC(=O)COCCOCCNC(=O)CN3CCN(CC(=O)O)CCN(CC(=O)O)CC3)cc2)NC(=O)[C@H](Cc2ccccc2)N(C)C(=O)CNC(=O)CNC(=O)[C@H]2CCCN2C(=O)[C@H](CC(=O)O)NC(=O)[C@H](CCCCNC(=O)N2CCN(CC(=O)O)CC2)NC(=O)CNC(=O)[C@H](Cc2c[nH]c3ccccc23)NC1=O [Example B40, Gly-Gly-NMePhe-F(4amPEG2NHNOTA)-Aoc-Trp-Gly-K(COpipzaa)-Asp-D-Pro] (cyclo(GG[NMeF][Phe(4-CH2NH2)]([AEEA-NOTA])[Aoc(2)]WGK([CO-Piperazinyl(4-CH2COOH)])D[dP])) |

Second part, the molecule before the results:

| Molecule | IC50 [1] [nM] | IC50 [2] [nM] | Kd [3] [nM] |
| --- | --- | --- | --- |
| CCCCC[C@@H]1NC(=O)[C@H](Cc2ccc(CNC(=O)CN3CCN(CC(=O)O)CCN(CC(=O)O)CCN(CC(=O)O)CC3)cc2)NC(=O)[C@H](Cc2ccccc2)N(C)C(=O)CNC(=O)CNC(=O)[C@H]2CCCN2C(=O)[C@H](CC(=O)O)NC(=O)[C@H](Cc2ccc(O)cc2)NC(=O)CNC(=O)[C@H](Cc2c[nH]c3ccccc23)NC1=O [Example B17, Gly-Gly-NMePhe-F(4amDOTA)-Ahp-Trp-Gly-Tyr-Asp-D-Pro, TFA salt] (cyclo([Ahp(2)]WGYD[dP]GG[NMeF][Phe(4-CH2NH2)](DOTA))) | 0.158 | 0.033 | 0.133 |
| CCCCC[C@@H]1NC(=O)[C@H](Cc2ccc(O)cc2)NC(=O)[C@H](Cc2ccccc2)N(C)C(=O)[C@H](CCC(=O)O)NC(=O)[C@H](CCCCN)NC(=O)[C@H]2CCCN2C(=O)[C@H](CC(=O)O)NC(=O)[C@H](Cc2ccc(O)cc2)NC(=O)CNC(=O)[C@H](Cc2c[nH]c3ccccc23)NC1=O [Example A21, Lys-Glu-NMePhe-Tyr-Ahp-Trp-Gly-Tyr-Asp-D-Pro, TFA salt] (cyclo([Ahp(2)]WGYD[dP]KE[NMeF]Y)) | 14 | 5.7 | 15 |
| CCCCC[C@@H]1NC(=O)[C@H](Cc2ccc(O)cc2)NC(=O)[C@H](Cc2ccccc2)N(C)C(=O)CNC(=O)[C@H](CCCCN)NC(=O)[C@H]2C[C@H](O)CN2C(=O)[C@H](CC(=O)O)NC(=O)[C@H](Cc2ccc(O)cc2)NC(=O)CNC(=O)[C@H](Cc2c[nH]c3ccccc23)NC1=O [Example A41, Lys-Gly-NMePhe-Tyr-Ahp-Trp-Gly-Tyr-Asp-D-trans4hyp, TFA salt] (cyclo([Ahp(2)]WGYD[dHyp]KG[NMeF]Y)) | 5.3 | 2.2 | 12 |
| CCCCC[C@@H]1NC(=O)[C@H](Cc2ccc(O)cc2)NC(=O)[C@H](Cc2ccccc2)N(C)C(=O)CNC(=O)CNC(=O)CN(C)C(=O)[C@H](CC(=O)O)NC(=O)[C@H](Cc2ccc(O)cc2)NC(=O)CNC(=O)[C@H](Cc2c[nH]c3ccccc23)NC1=O [Example A68, Gly-Gly-NMePhe-Tyr-Ahp-Trp-Gly-Tyr-Asp-NMeGly] (cyclo([Ahp(2)]WGYD[Sar]GG[NMeF]Y)) | 80 | 12 | 35 |
| CN1C(=O)CNC(=O)[C@H](CCCCN)NC(=O)[C@H]2CCCN2C(=O)[C@H](CC(=O)O)NC(=O)[C@H](Cc2ccc(O)cc2)NC(=O)CNC(=O)[C@H](Cc2c[nH]c3ccccc23)NC(=O)[C@H](CCC(=O)N2CCC(F)(F)C2)NC(=O)[C@H](Cc2ccc(O)cc2)NC(=O)[C@@H]1Cc1ccccc1 [Example A30, Lys-Gly-NMePhe-Tyr-Q(Pyrro(4F2))-Trp-Gly-Tyr-Asp-D-Pro, TFA salt] (cyclo(D[dP]KG[NMeF]YE(X3)WGY)) | 2.5 | 0.79 | 2.4 |
| CCCCC[C@@H]1NC(=O)[C@H](Cc2ccc(OCCN)cc2)NC(=O)[C@H](Cc2ccccc2)N(C)C(=O)CNC(=O)[C@H](CCO)NC(=O)[C@H]2CCCN2C(=O)[C@H](CC(=O)O)NC(=O)[C@H](Cc2ccc(O)cc2)NC(=O)CNC(=O)[C@H](Cc2c[nH]c3ccccc23)NC1=O [Example A47, hSer-Gly-NMePhe-F(4OEtNH2)-Ahp-Trp-Gly-Tyr-Asp-D-Pro, TFA salt] (cyclo([AEF][Ahp(2)]WGYD[dP][hSer]G[NMeF])) | 0.6 | 0.181 | 0.48 |
| CCCCC[C@@H]1NC(=O)[C@H](Cc2ccc(CNC(=O)COCCOCCN)cc2)NC(=O)[C@H](Cc2ccccc2)N(C)C(=O)CNC(=O)CNC(=O)[C@H]2CCCN2C(=O)[C@H](CC(=O)O)NC(=O)[C@H](Cc2ccc(O)cc2)NC(=O)CNC(=O)[C@H](Cc2c[nH]c3ccccc23)NC1=O [Example A27, Gly-Gly-NMePhe-F(4amPEG2NH2)-Ahp-Trp-Gly-Tyr-Asp-D-Pro] (cyclo([Ahp(2)]WGYD[dP]GG[NMeF][Phe(4-CH2NH2)](AEEA))) | 0.138 | 0.045 | 0.219 |
| CCCCC[C@@H]1NC(=O)[C@H](Cc2ccc(O)cc2)NC(=O)[C@H](Cc2ccccc2)N(C)C(=O)CNC(=O)CNC(=O)[C@H]2CCCN2C(=O)[C@H](CCO)NC(=O)[C@H](Cc2ccc(O)cc2)NC(=O)CNC(=O)[C@H](Cc2c[nH]c3ccccc23)NC1=O [Example A57, Gly-Gly-NMePhe-Tyr-Ahp-Trp-Gly-Tyr-hSer-D-Pro] (cyclo([Ahp(2)]WGY[hSer][dP]GG[NMeF]Y)) | 25 | 6.6 | 19 |
| CCCCC[C@@H]1NC(=O)[C@H](Cc2ccc(O)cc2)NC(=O)[C@H](Cc2ccccc2)NC(=O)CNC(=O)[C@H](CCCCN)NC(=O)[C@H]2CCCN2C(=O)[C@H](CC(=O)O)NC(=O)[C@H](Cc2ccc(O)cc2)NC(=O)CNC(=O)[C@H](Cc2c[nH]c3ccccc23)NC1=O [Example A22, Lys-Gly-Phe-Tyr-Ahp-Trp-Gly-Tyr-Asp-D-Pro, TFA salt] (cyclo([Ahp(2)]WGYD[dP]KGFY)) | 0.67 | 0.33 | 0.87 |

From patent publication US20250090699A1, “FAP TARGETING CYCLIC PEPTIDES AND CONJUGATES THEREOF” (Novartis AG, priority 2023, published 2025)
